{"source": "ChEMBL document CHEMBL1128021", "about": "“Potent and selective inhibitors of gelatinase-a 1. hydroxamic acid derivatives” (Bioorg Med Chem Lett, 1994)", "key": {"Stromelysin-1": {"target": "Stromelysin-1 (Homo sapiens, UniProt P08254)", "sequence (P08254 whole entry)": "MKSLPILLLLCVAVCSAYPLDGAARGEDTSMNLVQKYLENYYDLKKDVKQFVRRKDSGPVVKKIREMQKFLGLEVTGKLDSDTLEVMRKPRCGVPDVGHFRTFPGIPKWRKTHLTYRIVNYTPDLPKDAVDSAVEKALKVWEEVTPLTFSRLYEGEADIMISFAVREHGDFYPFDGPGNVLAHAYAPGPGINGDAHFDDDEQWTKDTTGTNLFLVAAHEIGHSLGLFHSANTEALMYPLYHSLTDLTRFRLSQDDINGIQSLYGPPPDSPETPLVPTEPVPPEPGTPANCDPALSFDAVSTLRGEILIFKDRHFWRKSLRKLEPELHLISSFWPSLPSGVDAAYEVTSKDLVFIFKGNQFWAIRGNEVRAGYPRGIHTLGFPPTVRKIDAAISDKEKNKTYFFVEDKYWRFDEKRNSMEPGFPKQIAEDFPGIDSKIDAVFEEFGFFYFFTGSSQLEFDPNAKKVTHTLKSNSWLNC", "assay": "Inhibition of the stromelysin enzyme."}, "Interstitial collagenase": {"target": "T1, Interstitial collagenase (Homo sapiens, UniProt P03956)", "T1 sequence (P03956 whole entry)": "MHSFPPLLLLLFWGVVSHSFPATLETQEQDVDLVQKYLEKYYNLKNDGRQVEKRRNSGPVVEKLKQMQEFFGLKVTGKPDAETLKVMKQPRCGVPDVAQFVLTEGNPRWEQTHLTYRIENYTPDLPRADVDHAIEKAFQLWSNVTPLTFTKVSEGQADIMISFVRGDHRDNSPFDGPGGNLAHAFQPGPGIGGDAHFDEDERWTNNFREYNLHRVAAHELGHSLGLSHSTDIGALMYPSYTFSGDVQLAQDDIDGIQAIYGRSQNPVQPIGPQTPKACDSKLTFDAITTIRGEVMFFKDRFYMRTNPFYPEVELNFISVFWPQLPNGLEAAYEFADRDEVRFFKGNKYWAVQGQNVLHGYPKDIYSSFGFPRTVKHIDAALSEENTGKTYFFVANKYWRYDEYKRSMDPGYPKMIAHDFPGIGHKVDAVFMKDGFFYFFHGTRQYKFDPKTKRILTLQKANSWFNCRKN", "assay": "Inhibition of the collagenase enzyme."}, "[1]": {"target": "72 kDa type IV collagenase (Homo sapiens, UniProt P08253)", "sequence (P08253 whole entry)": "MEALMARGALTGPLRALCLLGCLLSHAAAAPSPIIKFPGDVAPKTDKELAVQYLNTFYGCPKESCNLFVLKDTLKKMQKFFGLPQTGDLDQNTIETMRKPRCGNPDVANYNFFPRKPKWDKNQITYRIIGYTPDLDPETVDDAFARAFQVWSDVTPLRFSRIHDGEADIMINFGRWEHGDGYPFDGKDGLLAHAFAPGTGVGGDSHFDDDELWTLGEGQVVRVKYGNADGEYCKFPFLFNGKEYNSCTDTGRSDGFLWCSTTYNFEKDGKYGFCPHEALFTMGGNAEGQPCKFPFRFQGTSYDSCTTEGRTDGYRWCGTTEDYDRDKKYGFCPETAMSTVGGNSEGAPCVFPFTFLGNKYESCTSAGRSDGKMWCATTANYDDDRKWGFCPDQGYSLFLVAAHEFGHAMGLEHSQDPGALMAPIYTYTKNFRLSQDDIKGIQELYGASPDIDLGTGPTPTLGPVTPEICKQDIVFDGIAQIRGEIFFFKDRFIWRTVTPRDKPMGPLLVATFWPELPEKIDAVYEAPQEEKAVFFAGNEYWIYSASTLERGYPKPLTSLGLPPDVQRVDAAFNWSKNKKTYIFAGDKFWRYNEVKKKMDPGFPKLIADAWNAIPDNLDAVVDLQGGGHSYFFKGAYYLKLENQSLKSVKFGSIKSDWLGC", "assay": "Inhibition of the gelatinase-A enzyme."}}}
{"smiles": "O=C(C[C@@H](CCCc1ccccc1)C(=O)N[C@@H](CC1CCCCC1)C(=O)NCCc1ccc(S(=O)(=O)O)cc1)NO", "values": [{"measurement": "Ki", "setting": "Stromelysin-1", "value": 8.15, "unit": "nM"}, {"measurement": "Ki", "setting": "Interstitial collagenase", "value": 942, "unit": "nM"}, {"measurement": "Ki", "setting": "[1]", "value": 0.59, "unit": "nM"}]}
{"smiles": "O=C(C[C@@H](CCCc1ccc(Cl)cc1)C(=O)N[C@@H](CC1CCCCC1)C(=O)NCCC(=O)N1CCOCC1)NO", "values": [{"measurement": "Ki", "setting": "Stromelysin-1", "value": 1.38, "unit": "nM"}, {"measurement": "Ki", "setting": "Interstitial collagenase", "value": 319, "unit": "nM"}, {"measurement": "Ki", "setting": "[1]", "value": 0.02, "unit": "nM"}]}
{"smiles": "COC(=O)CCNC(=O)[C@H](CC1CCCCC1)NC(=O)[C@H](CCCc1ccc(Cl)cc1)CC(=O)NO", "values": [{"measurement": "Ki", "setting": "Stromelysin-1", "value": 0.96, "unit": "nM"}, {"measurement": "Ki", "setting": "Interstitial collagenase", "value": 135, "unit": "nM"}, {"measurement": "Ki", "setting": "[1]", "value": 0.01, "unit": "nM"}]}
{"smiles": "Cc1ccc(CCC[C@H](CC(=O)NO)C(=O)N[C@@H](CC2CCCCC2)C(=O)NCCNS(=O)(=O)N2CCOCC2)cc1", "values": [{"measurement": "Ki", "setting": "[1]", "value": 0.01, "unit": "nM"}]}
{"smiles": "Cc1ccc(CCC[C@H](CC(=O)NO)C(=O)N[C@@H](CC2CCCCC2)C(=O)NCCCCN(C)C)cc1", "values": [{"measurement": "Ki", "setting": "Stromelysin-1", "value": 5.87, "unit": "nM"}, {"measurement": "Ki", "setting": "Interstitial collagenase", "value": 313, "unit": "nM"}, {"measurement": "Ki", "setting": "[1]", "value": 0.02, "unit": "nM"}]}
{"smiles": "Cc1ccc(CCC[C@H](CC(=O)NO)C(=O)N[C@@H](CC2CCCCC2)C(=O)NCCc2ccc(S(N)(=O)=O)cc2)cc1", "values": [{"measurement": "Ki", "setting": "Stromelysin-1", "value": 2.98, "unit": "nM"}, {"measurement": "Ki", "setting": "Interstitial collagenase", "value": 329, "unit": "nM"}, {"measurement": "Ki", "setting": "[1]", "value": 0.01, "unit": "nM"}]}
{"smiles": "NS(=O)(=O)c1ccc(CCNC(=O)[C@H](CC2CCCCC2)NC(=O)[C@H](CCCc2ccc(Cl)cc2)CC(=O)NO)cc1", "values": [{"measurement": "Ki", "setting": "Stromelysin-1", "value": 6.35, "unit": "nM"}, {"measurement": "Ki", "setting": "Interstitial collagenase", "value": 382, "unit": "nM"}, {"measurement": "Ki", "setting": "[1]", "value": 0.03, "unit": "nM"}]}
{"smiles": "Cc1ccc(CCC[C@H](CC(=O)NO)C(=O)N[C@@H](CC2CCCCC2)C(=O)NCCCCN2CCOCC2)cc1", "values": [{"measurement": "Ki", "setting": "Stromelysin-1", "value": 2.61, "unit": "nM"}, {"measurement": "Ki", "setting": "Interstitial collagenase", "value": 642, "unit": "nM"}, {"measurement": "Ki", "setting": "[1]", "value": 0.02, "unit": "nM"}]}
{"smiles": "O=C(C[C@@H](Cc1ccccc1)C(=O)N[C@@H](CC1CCCCC1)C(=O)NCCc1ccccc1)NO", "values": [{"measurement": "Ki", "setting": "Stromelysin-1", "value": "> 10000", "unit": "nM"}, {"measurement": "Ki", "setting": "Interstitial collagenase", "value": "> 10000", "unit": "nM"}, {"measurement": "Ki", "setting": "[1]", "value": 1900, "unit": "nM"}]}
{"smiles": "O=C(C[C@@H](CCCc1ccc(C(F)(F)F)cc1)C(=O)N[C@@H](CC1CCCCC1)C(=O)NCCc1ccccc1)NO", "values": [{"measurement": "Ki", "setting": "Stromelysin-1", "value": 90.3, "unit": "nM"}, {"measurement": "Ki", "setting": "Interstitial collagenase", "value": 5000, "unit": "nM"}, {"measurement": "Ki", "setting": "[1]", "value": 0.3, "unit": "nM"}]}
{"smiles": "O=C(C[C@@H](CCCc1ccc(Cl)cc1)C(=O)N[C@@H](CC1CCCCC1)C(=O)NCCNS(=O)(=O)N1CCOCC1)NO", "values": [{"measurement": "Ki", "setting": "[1]", "value": 0.01, "unit": "nM"}]}
{"smiles": "O=C(O)CCNC(=O)[C@H](CC1CCCCC1)NC(=O)[C@H](CCCc1ccc(Cl)cc1)CC(=O)NO", "values": [{"measurement": "Ki", "setting": "Stromelysin-1", "value": 0.8, "unit": "nM"}, {"measurement": "Ki", "setting": "Interstitial collagenase", "value": 193, "unit": "nM"}, {"measurement": "Ki", "setting": "[1]", "value": 0.01, "unit": "nM"}]}
{"smiles": "COc1ccc(CCC[C@H](CC(=O)NO)C(=O)N[C@@H](CC2CCCCC2)C(=O)NCCc2ccccc2)cc1", "values": [{"measurement": "Ki", "setting": "Stromelysin-1", "value": 4.16, "unit": "nM"}, {"measurement": "Ki", "setting": "Interstitial collagenase", "value": 1530, "unit": "nM"}, {"measurement": "Ki", "setting": "[1]", "value": 0.06, "unit": "nM"}]}
{"smiles": "CN(C)CCCCNC(=O)[C@H](CC1CCCCC1)NC(=O)[C@H](CCCc1ccc(Cl)cc1)CC(=O)NO", "values": [{"measurement": "Ki", "setting": "Stromelysin-1", "value": 22.2, "unit": "nM"}, {"measurement": "Ki", "setting": "Interstitial collagenase", "value": 1050, "unit": "nM"}, {"measurement": "Ki", "setting": "[1]", "value": 0.05, "unit": "nM"}]}
{"smiles": "O=C(C[C@@H](CCCC1CCCCC1)C(=O)N[C@@H](CC1CCCCC1)C(=O)NCCc1ccccc1)NO", "values": [{"measurement": "Ki", "setting": "[1]", "value": 6.9, "unit": "nM"}]}
{"smiles": "Cc1ccc(CCC[C@H](CC(=O)NO)C(=O)N[C@@H](CC2CCCCC2)C(=O)NCCc2ccccc2)cc1", "values": [{"measurement": "Ki", "setting": "Stromelysin-1", "value": 8.24, "unit": "nM"}, {"measurement": "Ki", "setting": "Interstitial collagenase", "value": 921, "unit": "nM"}, {"measurement": "Ki", "setting": "[1]", "value": 0.08, "unit": "nM"}]}
{"smiles": "O=C(C[C@@H](CCCc1ccc(Cl)cc1)C(=O)N[C@@H](CC1CCCCC1)C(=O)NCCCCN1CCOCC1)NO", "values": [{"measurement": "Ki", "setting": "Stromelysin-1", "value": 2.39, "unit": "nM"}, {"measurement": "Ki", "setting": "Interstitial collagenase", "value": 313, "unit": "nM"}, {"measurement": "Ki", "setting": "[1]", "value": 0.03, "unit": "nM"}]}
{"smiles": "CC(C)C[C@H](CC(=O)NO)C(=O)N[C@@H](CC1CCCCC1)C(=O)NCCc1ccccc1", "values": [{"measurement": "Ki", "setting": "Stromelysin-1", "value": 25.3, "unit": "nM"}, {"measurement": "Ki", "setting": "Interstitial collagenase", "value": 7.8, "unit": "nM"}, {"measurement": "Ki", "setting": "[1]", "value": 0.33, "unit": "nM"}]}
{"smiles": "Cc1ccc(CCC[C@H](CC(=O)NO)C(=O)N[C@@H](CC2CCCCC2)C(=O)NCCN2CCOCC2)cc1", "values": [{"measurement": "Ki", "setting": "Stromelysin-1", "value": 6.26, "unit": "nM"}, {"measurement": "Ki", "setting": "Interstitial collagenase", "value": 455, "unit": "nM"}, {"measurement": "Ki", "setting": "[1]", "value": 0.01, "unit": "nM"}]}
{"smiles": "O=C(C[C@@H](CCCc1ccccc1)C(=O)N[C@@H](CC1CCCCC1)C(=O)NCCc1ccccc1)NO", "values": [{"measurement": "Ki", "setting": "Stromelysin-1", "value": 8.3, "unit": "nM"}, {"measurement": "Ki", "setting": "Interstitial collagenase", "value": 203, "unit": "nM"}, {"measurement": "Ki", "setting": "[1]", "value": 0.062, "unit": "nM"}]}
{"smiles": "O=C(C[C@@H](CCCc1ccc(F)cc1)C(=O)N[C@@H](CC1CCCCC1)C(=O)NCCc1ccccc1)NO", "values": [{"measurement": "Ki", "setting": "Stromelysin-1", "value": 13.5, "unit": "nM"}, {"measurement": "Ki", "setting": "Interstitial collagenase", "value": 296, "unit": "nM"}, {"measurement": "Ki", "setting": "[1]", "value": 0.06, "unit": "nM"}]}
{"smiles": "O=C(C[C@@H](CCCCc1ccccc1)C(=O)N[C@@H](CC1CCCCC1)C(=O)NCCc1ccccc1)NO", "values": [{"measurement": "Ki", "setting": "Stromelysin-1", "value": 177, "unit": "nM"}, {"measurement": "Ki", "setting": "Interstitial collagenase", "value": 2500, "unit": "nM"}, {"measurement": "Ki", "setting": "[1]", "value": 0.254, "unit": "nM"}]}
{"smiles": "CC(C)C[C@H](CC(=O)NO)C(=O)N[C@@H](CC(C)C)C(=O)N[C@@H](Cc1ccccc1)C(N)=O", "values": [{"measurement": "Ki", "setting": "Stromelysin-1", "value": 127, "unit": "nM"}, {"measurement": "Ki", "setting": "Interstitial collagenase", "value": 303, "unit": "nM"}]}
{"smiles": "CCc1ccc(CCC[C@H](CC(=O)NO)C(=O)N[C@@H](CC2CCCCC2)C(=O)NCCc2ccccc2)cc1", "values": [{"measurement": "Ki", "setting": "Stromelysin-1", "value": 5.44, "unit": "nM"}, {"measurement": "Ki", "setting": "Interstitial collagenase", "value": 5120, "unit": "nM"}, {"measurement": "Ki", "setting": "[1]", "value": 0.1, "unit": "nM"}]}
{"smiles": "O=C(C[C@@H](CCc1ccccc1)C(=O)N[C@@H](CC1CCCCC1)C(=O)NCCc1ccccc1)NO", "values": [{"measurement": "Ki", "setting": "Stromelysin-1", "value": 77, "unit": "nM"}, {"measurement": "Ki", "setting": "Interstitial collagenase", "value": 618, "unit": "nM"}, {"measurement": "Ki", "setting": "[1]", "value": 2.24, "unit": "nM"}]}
{"smiles": "O=C(C[C@@H](CCCc1ccc(Cl)cc1)C(=O)N[C@@H](CC1CCCCC1)C(=O)NCCc1ccccc1)NO", "values": [{"measurement": "Ki", "setting": "Stromelysin-1", "value": 7.31, "unit": "nM"}, {"measurement": "Ki", "setting": "[1]", "value": 0.03, "unit": "nM"}]}
